Laboratory results from US10940129B2, “Method of treatment for reducing pain sensitization” (priority 2018, dated 2021).
Residue numbers refer to the chain shown, from its start. Read-outs that look alike come from different tables or passages of the source.

Tests used:
mouse TRPA1 = biological target: T1, mouse TRPA1 (Mus musculus, UniProt Q8BLA8); conditions: HEK 293 cells transfected with mouse TRPA1; cited from earlier work
T1 construct: expressed in transfected cells; host or cells: HEK 293
T1 sequence (Q8BLA8 whole entry): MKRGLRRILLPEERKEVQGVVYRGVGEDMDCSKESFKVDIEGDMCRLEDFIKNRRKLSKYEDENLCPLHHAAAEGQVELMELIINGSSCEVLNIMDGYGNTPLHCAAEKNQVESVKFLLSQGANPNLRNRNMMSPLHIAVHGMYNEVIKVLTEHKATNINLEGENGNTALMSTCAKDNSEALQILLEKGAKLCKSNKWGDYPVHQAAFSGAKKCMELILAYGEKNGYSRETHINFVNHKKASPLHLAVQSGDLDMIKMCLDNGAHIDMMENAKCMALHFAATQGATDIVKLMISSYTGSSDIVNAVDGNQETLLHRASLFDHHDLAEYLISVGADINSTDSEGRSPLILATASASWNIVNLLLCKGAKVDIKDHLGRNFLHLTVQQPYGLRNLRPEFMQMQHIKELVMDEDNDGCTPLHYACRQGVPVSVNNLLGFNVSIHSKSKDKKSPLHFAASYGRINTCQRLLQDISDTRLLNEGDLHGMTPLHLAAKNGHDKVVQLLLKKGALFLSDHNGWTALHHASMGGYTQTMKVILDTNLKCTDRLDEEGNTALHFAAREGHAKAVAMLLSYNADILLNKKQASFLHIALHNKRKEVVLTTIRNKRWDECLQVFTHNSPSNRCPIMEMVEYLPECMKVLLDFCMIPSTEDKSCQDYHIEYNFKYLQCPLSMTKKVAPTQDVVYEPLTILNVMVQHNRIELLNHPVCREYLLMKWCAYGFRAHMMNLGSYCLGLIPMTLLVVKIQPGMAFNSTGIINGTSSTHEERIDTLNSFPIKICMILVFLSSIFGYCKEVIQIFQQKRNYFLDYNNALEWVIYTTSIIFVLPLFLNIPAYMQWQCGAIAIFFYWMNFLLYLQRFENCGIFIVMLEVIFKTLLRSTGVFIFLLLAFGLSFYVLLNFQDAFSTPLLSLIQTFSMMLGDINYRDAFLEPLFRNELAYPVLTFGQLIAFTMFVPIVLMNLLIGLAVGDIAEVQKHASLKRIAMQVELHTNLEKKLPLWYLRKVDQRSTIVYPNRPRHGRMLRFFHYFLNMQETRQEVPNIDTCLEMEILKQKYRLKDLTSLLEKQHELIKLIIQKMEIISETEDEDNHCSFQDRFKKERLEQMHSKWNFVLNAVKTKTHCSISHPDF

[1] = Computed Log P (PubChem, XLogP3-AA algorithm); conditions: worked out from Log P
Excerpt: Partition coefficient; Log P: The ratio of the concentrations of a solute between two solvents. When one of the solvents is non-polar and the other is water, this is a measure of lipophilicity and the logarithm of the ratio is Log P. Unless otherwise specified, the Log P values reported herein are from the National Library of Medicine “PubChem” database (which uses the XLogP3-AA algorithm for Log P determination).

TRPA1 [2] = conditions: low level of 4-HNE; 25 degrees C. to 10 degrees; cited from earlier work
mice = conditions: low dose into the hind paws; zero degree cold plate; vehicle 125 seconds; cited from earlier work
[3] = tested on: formaldehyde induced pain and toxicity; conditions: [Bai, 2012], [Song, 2010]; cited from earlier work
[4] = tested on: glutathione content of cells; conditions: daily dosage of 1000 mg; patients; cited from earlier work
male rats = conditions: 5 day course started 10 days after chronic constriction injury; cited from earlier work
[5] = tested on: ALDH2*1/*2 mutant and wild-type mice; conditions: cited from earlier work; for licking or flinching: 100 ng into a rear paw
chronic pain = experiment: Self-reports of voluntary evaluators taking Protein-Allium (10 point pain scale, symptoms, side effects)
Excerpt: On a 10 point pain scale the pain level was 10.
On a 10 point pain scale, the pain level was 10.

TRPA1 [6] = biological target: TRPA1 (Homo sapiens, UniProt O75762); experiment: TRPA1 agonist activity
Sequence of TRPA1 (Homo sapiens, UniProt O75762) (O75762 whole entry, species assumed): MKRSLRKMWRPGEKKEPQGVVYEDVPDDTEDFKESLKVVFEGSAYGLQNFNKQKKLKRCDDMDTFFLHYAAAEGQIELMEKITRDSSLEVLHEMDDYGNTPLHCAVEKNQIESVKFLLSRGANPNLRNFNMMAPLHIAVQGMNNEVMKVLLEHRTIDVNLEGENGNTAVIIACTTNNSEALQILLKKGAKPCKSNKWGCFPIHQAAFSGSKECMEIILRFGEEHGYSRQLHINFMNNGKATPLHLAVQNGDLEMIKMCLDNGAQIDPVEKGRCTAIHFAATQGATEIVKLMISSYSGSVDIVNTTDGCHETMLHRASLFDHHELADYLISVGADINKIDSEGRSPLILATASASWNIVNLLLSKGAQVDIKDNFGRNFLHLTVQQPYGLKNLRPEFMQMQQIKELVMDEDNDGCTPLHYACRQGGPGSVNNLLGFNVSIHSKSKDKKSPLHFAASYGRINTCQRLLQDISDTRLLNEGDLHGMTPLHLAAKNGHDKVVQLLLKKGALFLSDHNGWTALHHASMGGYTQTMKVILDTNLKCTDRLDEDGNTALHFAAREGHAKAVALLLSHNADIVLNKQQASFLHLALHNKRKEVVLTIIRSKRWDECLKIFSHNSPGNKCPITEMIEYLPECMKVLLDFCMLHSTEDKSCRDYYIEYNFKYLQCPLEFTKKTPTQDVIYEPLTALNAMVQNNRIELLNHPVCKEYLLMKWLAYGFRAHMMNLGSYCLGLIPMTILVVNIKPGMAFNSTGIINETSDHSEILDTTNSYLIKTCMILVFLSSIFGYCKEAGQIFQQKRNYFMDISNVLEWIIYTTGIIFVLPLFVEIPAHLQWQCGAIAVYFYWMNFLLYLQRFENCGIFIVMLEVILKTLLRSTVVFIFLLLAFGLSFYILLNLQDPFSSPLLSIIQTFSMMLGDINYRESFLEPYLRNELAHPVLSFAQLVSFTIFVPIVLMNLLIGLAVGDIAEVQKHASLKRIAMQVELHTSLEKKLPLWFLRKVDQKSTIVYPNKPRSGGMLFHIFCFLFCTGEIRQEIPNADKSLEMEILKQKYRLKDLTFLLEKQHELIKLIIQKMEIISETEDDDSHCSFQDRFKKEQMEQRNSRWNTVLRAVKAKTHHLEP

ALDH2*2 = biological target: T2, ALDH2*2 (Homo sapiens, UniProt P05091, E504K); conditions: [Chen, 2008]; cited from earlier work
T2 sequence (P05091 18-517 E504K): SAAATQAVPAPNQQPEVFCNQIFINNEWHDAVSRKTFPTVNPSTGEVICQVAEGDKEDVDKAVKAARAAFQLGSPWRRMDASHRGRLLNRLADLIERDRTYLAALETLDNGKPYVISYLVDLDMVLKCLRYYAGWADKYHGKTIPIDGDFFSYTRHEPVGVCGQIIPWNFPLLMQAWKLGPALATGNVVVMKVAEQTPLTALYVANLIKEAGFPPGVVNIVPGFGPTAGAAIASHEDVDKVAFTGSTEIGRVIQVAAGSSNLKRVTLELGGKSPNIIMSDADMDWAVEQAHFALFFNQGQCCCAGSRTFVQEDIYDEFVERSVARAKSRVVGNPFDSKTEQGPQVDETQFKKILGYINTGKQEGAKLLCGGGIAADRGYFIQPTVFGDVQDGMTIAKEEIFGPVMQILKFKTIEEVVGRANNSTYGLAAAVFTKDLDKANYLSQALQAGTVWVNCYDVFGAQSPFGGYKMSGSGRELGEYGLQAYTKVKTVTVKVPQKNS

[7] = tested on: wild-type and mutant mice; conditions: 10 to 40 minutes; formalin (2% aqueous formaldehyde) into the paw; both wild-type and mutant mice; cited from earlier work
ALDH2*1/*2 mice = conditions: 1.2 g stimulus level, 3 hours after carrageenan; cited from earlier work
ALDH2*1 = biological target: T3, ALDH2*1 (Homo sapiens, UniProt P05091); conditions: [Perez-Miller, 2010]; cited from earlier work
T3 sequence (P05091 18-517): T2 sequence (P05091 18-517 E504K) with K487E

Compound: CC12CCC(CC1=O)C2(C)C (centres unmarked) [camphor]
- effect on H2O2-induced Ca^2+ increase (mouse TRPA1): prevents

Compound: CCCSSCCC [disulfide from propyl mercaptan, dipropyl disulfide]
- concentration on the oily (lipid) side relative to the aqueous side [1]: about 500 times

Compound: CCCCCC(O)C=CC=O (centres unmarked) [4-hydroxy-2-nonenal (4-HNE), 4-hydroxy-2-nonenal]
- potentiation of current flow by lowering the temperature (TRPA1 [2]): 3 factor
- time to first jump (mice): 20 s

Compound: NNCCc1ccccc1 [Phenelzine]
- reducing formaldehyde induced pain and toxicity [3]: effective

Compound: O=C1O[C@H]([C@@H](O)CO)C(O)=C1O [vitamin C]
- mean percentage decrease of glutathione [4]: 60%

Compound: c1ccc(SSc2ccccn2)nc1 [2,2′-dipyridyl disulfide]
- intracellular Ca^2+ (mouse TRPA1): increased intracellular Ca^2+ in a dose-dependent manner

Compound: C=CCSSCC=C [Diallyl disulfide]
- concentration on the oily (lipid) side relative to the aqueous side [1]: about 160 times

Compound: CN1CC[C@]23c4c5ccc(O)c4O[C@H]2[C@@H](O)C=C[C@H]3[C@H]1C5 [morphine]
- duration of injury-related allodynia (male rats): more than doubling

Compound: CC=O [acetylaldehyde]
- licking or flinching ([5]; mutant mice): 5 s
- licking or flinching ([5]; wild-type mice): 4 s
- mutant mice more sensitive to pressure (nociceptive threshold) ([5]; after injection, mutant vs wild-type mice): 4 times

Compound: NCC1(CC(=O)O)CCCCC1 [Gabapentin]
- side effects (chronic pain; self-report): bad side effects (drowsiness)
- muscle memory (residual pain), shoulder neuropathy (chronic pain; subject two): always had muscle memory of the pain

Compound: N[C@@H](CCS)C(=O)O [Homocysteine, (S)-2-Amino-4-mercaptobutyric acid]
- more hydrophilic than cysteine [1]: ~10 ×

Compound: CCCS [Propyl mercaptan, 1-PropaneThiol]
- concentration on the oily (lipid) side relative to the aqueous side [1]: about 65 times

Compound: O[C@H](CS)[C@H](O)CS (racemic) [dithiothreitol]
- effect on H2O2-induced Ca^2+ increase (mouse TRPA1): markedly decreased

Compound: N[C@@H](CS)C(=O)O [cysteine, (R)-2-Amino-3-mercaptopropanoic acid]
- partitions into water vs. oil [1]: ~300 to 1

Compound: C[C@]12CCC(=O)C=C1CC[C@@H]1[C@@H]2C(=O)C[C@@]2(C)[C@H]1CC[C@]2(O)C(=O)CO [cortisone]
- benefit on back pain (chronic pain; injection, subject one): minimal benefit

Compound: CCCCC/C=C/C=C1/C(=O)C=C[C@@H]1C/C=C\CCCC(=O)O [15d-PGJ2]
- more active than 4-HNE (TRPA1 [6]): ~10

Compound: O=C(NCc1ccc2c(c1)OCO2)c1c(Cl)cccc1Cl [Alda-1]
- increase of the activity of ALDH2*2 (ALDH2*2): 2.2 fold
- decrease of early second phase pain response [7]: ~60%
- less sensitive to mechanical pain than wild-type mice without treatment (ALDH2*1/*2 mice): ~30%
- efficiency of ALDH2*1 (ALDH2*1): doubles

Compound: COc1ccc2cc([C@H](C)C(=O)O)ccc2c1 [Naprosyn]
- pain level, adenomyosis (chronic pain; 10-point pain scale, subject two): 4

Compound: catalase
- effect on H2O2-induced Ca^2+ increase (mouse TRPA1): abolished
